# Reference: patent US7303739B2, “Prodrugs for liver specific drug delivery” (Metabasis Therapeutics, Inc., priority 1999, dated 2007)
# Key:
# rat hepatocytes = test: Activation of Compound 1.1 to Etoposide in rat hepatocytes; type: in vitro ADME
# Protocol: Methods: Hepatocytes were prepared from fed Sprague-Dawley rats (250-300 g) according to the procedure of Berry and Friend (Berry, M. N., Friend, D. S. J. Cell Biol. 43, 506-520 (1969)) as modified by Groen (Groen, A. K. et al. Eur J. Biochem 122, 87-93 (1982)). Hepatocytes (75 mg wet weight/ml) were incubated in 1 ml Krebs-bicarbonate buffer containing 10 mM glucose, and 1 mg/ml BSA. Incubations were carried out in a 95% oxygen, 5% carbon dioxide atmosphere in closed, 50-ml Falcon tubes submerged in a rapidly shaking water bath (37° C.). A 10 mM stock solution of Compound 1.1 was prepared in methanol, and then diluted into the cell suspension or Krebs-bicarbonate buffer to yield a final concentration of 100 μM. […] The cell extracts in the acid layers were neutralized, and the intracellular prodrug metabolite content analyzed by reverse phase HPLC with use of a Beckman Ultrasphere ODS column (4.6×150 mm). The column was equilibrated with 20 mM potassium phosphate buffer, pH 6.3, and eluted with a gradient to 100% methanol. Detection was at 284 nm. Peaks on the chromatograms were identified by comparison to the retention times and spectra of standards of prodrug and parent compound.
# [1] = target: T1, recombinant human P450-isozyme, CYP3A4 (Homo sapiens, UniProt P08684); test: Activation of Compound 1.1 in vitro by recombinant CYP3A4; type: in vitro ADME; conditions: 1 mg/ml Baculosomes, 100 μM Compound 1.1, 2 mM NADPH, 37° C.
# T1 construct: purchased Panvera Corp., Madison, Wis; host or cells: baculovirus-infected insect cells (microsomes, Baculosomes)
# T1 sequence (P08684 whole entry): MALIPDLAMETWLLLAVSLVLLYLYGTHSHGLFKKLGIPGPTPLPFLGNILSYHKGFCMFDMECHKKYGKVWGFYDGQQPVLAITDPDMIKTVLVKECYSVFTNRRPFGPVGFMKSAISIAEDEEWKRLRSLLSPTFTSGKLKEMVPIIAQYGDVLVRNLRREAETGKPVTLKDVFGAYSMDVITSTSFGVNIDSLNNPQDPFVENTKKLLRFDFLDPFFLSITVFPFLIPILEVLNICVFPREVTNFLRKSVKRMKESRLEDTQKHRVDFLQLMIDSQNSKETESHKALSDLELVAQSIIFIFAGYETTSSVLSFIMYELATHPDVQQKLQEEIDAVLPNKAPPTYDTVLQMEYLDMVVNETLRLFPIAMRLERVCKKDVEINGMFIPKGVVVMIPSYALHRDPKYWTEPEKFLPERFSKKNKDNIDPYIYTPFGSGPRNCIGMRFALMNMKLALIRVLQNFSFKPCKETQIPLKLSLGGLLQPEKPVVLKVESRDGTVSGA
# Protocol: Activation of Compound 1.1 was evaluated in reactions containing microsomes from baculovirus-infected insect cells co-expressing recombinant human P450-isozyme, CYP3A4, and cytochrome P450 reductase (Panvera Corp., Madison, Wis.).
# Methods: Reaction mixtures (0.5 ml @ 37° C.) consisted of 1 mg/ml Baculosomes, 100 μM Compound 1.1, 2 mM NADPH and 100 mM KH2PO4 buffer. Reactions were incubated for 30 minutes in an Eppendorf Thermomixer 5436 at 37° C., and reciprocal shaking speed setting 6. 100 μl aliquots were collected at 0, 10, 20 and 30 minutes and quenched with 1.5 volumes of methanol. These extracts were spun for 10 minutes at 14,000 rpm in an Eppendorf microfuge and the supernatants were lyophilized to remove the methanol. The dried supernatant pellets were resuspended in 100 μl 20 mM potassium phosphate buffer, pH 6.3, clarified by centrifugation, and analyzed by HPLC as described in Example A.
# [2] = test system: parent cell line (AHH-1 TK+/−) which does not express CYP3A4; test: Compound 1.1 activity in parent lymphoblastoid cells not expressing CYP3A4 (colony forming ability); conditions: non-CYP3A4 expressing cells, 24 hours exposure, 14 days culture
# Protocol: Following drug exposure, cells are diluted to 10 cells/ml and cultured for 14 days to determine colony forming ability.
# [3] = Tissue homogenate activity (activation in homogenates from various tissues); type: in vitro ADME, rat; conditions: 100 μM, 1 hour
# Protocol: Compound 1.1 is tested for activation in homogenates from various tissues to assess the specificity-of liver activation.
# Methods: Rats are anesthetized under halothane and tissues including liver, kidney, brain, heart, stomach, spleen, muscle, lung, and testis are excised and frozen in liquid nitrogen. Tissues are then homogenized in 1 to 3 volumes of 50 mM Tris-HCl, 154 mM KCL, 1 mM EGTA, pH 7.4. The homogenates are centrifuged at 10,000 rpm and 4° C. for 30 minutes and the supernatant recovered. Liver cytosol is prepared by centrifuging the crude liver extract for 1 hour at 40,000 rpm and […]. Reaction mixtures consist of 50 mM KH2PO4 pH 7.4, 13 mM glucose-6-phosphate, 2 mM NADP+, 10 units of glucose-6-phosphate dehydrogenase, 100 μM Compound 1.1 and tissue homogenate or liver cytosol at a protein concentration of 8.5 mg/ml. Reactions are incubated at 37° C. Aliquots are taken after 0 and 1 hour of incubation, and extracted with 60% methanol. The methanolic extracts are centrifuged at 14,000 rpm, and filtered prior to analysis by HPLC.
# [4] = Liver delivery of Etoposide following administration to rat; type: in vivo
# Protocol: At appropriate time points following drug administration, animals are lightly anesthetized with halothane. The peritoneal cavity is then opened and a blood sample is obtained from the abdominal vena cava and the liver freeze-clamped and excised.
# The blood samples are heparinized and plasma is prepared. Plasma samples (100 μL) are mixed with perchloric acid or methanol, vortexed, and then clarified by centrifugation. The supernatants are analyzed for Etoposide by HPLC as described in Example A.
# Livers are immediately homogenized in 3 volumes of 10% perchloric acid (w/w), and the extracts clarified by centrifugation at 2500×g (5 minutes). The resulting supernatants are removed and neutralized with 0.3 volumes of 3M KOH/3M KHCO3. The neutralized liver extracts are then spun in an Eppendorf microfuge at 10,000 rpm (20 minutes, 4° C.). The supernatants are analyzed for Etoposide as described above.
# [5] = test system: human liver microsomes (CYP3A4, CYP1A2, CYP2C9); test: Identification of the P450 isozyme involved in the activation (human microsomes with isozyme inhibitors); type: in vitro ADME; conditions: 0-100 μM inhibitor, 250 μM prodrug
# Protocol: Prodrugs are evaluated for human microsome-catalyzed conversion to parent compound in the absence and presence of specific inhibitors of three major P450 isozymes: ketoconazole (CYP3A4), furafylline (CYP1A2), and sulfaphenazole (CYP2C9).
# Methods: Reactions (0.5 ml @ 37° C.) consist of 0.2 M KH2PO4, 13 mM glucose-6-phosphate, 2.2 mM NADP^+, 1 unit of glucose-6-phosphate dehydrogenase, 0-2.5 mg/ml human microsomal protein (In Vitro Technologies, Inc.), 250 μM prodrug, and 0-100 μM P450 isozyme inhibitor. Reactions are stopped by addition of methanol to a concentration of 60%, filtered ([…]), and lyophilized. Samples are resuspended in HPLC buffer (10 mM phosphate pH 5.5, 2.5 mM octyl-triethyl-ammonium), loaded onto a YMC C8 HPLC column (250×4.6 mm), and eluted with a methanol gradient to 80%. Formation of parent drug is confirmed by co-elution with an authentic parent drug standard.
# rat embryos in culture = rat embryos in culture (Teratology 39, 31-37 (1989)); cited from earlier work
smiles,measurement,setting,value
"COc1cc(C2c3cc4c(cc3C(OC3OC5COC(C)OC5C(O)C3O)C3COC(=O)C23)OCO4)cc(OC)c1OP1(=O)OCCC(c2ccncc2)O1 (stereo not shown) [Compound 1.1, 4′-O-(2-oxo-4-pyridyl-1,3,2-dioxaphosphorinan-2-yl)-etoposide]",stability in cell-free incubations,"rat hepatocytes; Krebs-bicarbonate buffer without cells, 100 μM, 37° C.",stable
same,intracellular levels of Etoposide,"rat hepatocytes; rat hepatocytes, 100 μM Compound 1.1, 2-hour time point",approximately 40 nmoles/gram of cells
same,activation to Etoposide phosphate and free Etoposide,"rat hepatocytes; rat hepatocytes, 100 μM, 37° C.",activated to Etoposide
same,rate of Etoposide phosphate formation,[1],386 nmoles Etoposide phosphate/nmole CYP3A4/h
same,cytotoxicity (inhibition of cell colony formation),[2],substantial reduction cytotoxic activity
same,activation in crude rat liver homogenate,"[3]; 8.5 mg/ml protein, 37° C.",depletion of the prodrug and formation of parent compound
same,activation in other tissue homogenates,"[3]; kidney, brain, heart, stomach, spleen, muscle, lung, testis",fails to result in appreciable activation
same,activation in liver cytosol,"[3]; liver cytosol without microsomal P450 enzymes, 37° C.",does not result in activation
same,liver specificity,"[4]; in vivo, relative to free etoposide",enhanced liver specificity
same,area under the curve of Etoposide in liver,"[4]; rat, oral or intravenous, compared to administration of free Etoposide",higher
same,levels of Etoposide in plasma,"[4]; rat, oral or intravenous, compared to free Etoposide",Reduced levels
"CC(=O)N1CCN(c2ccc(OCC3COC(Cn4ccnc4)(c4ccc(Cl)cc4Cl)O3)cc2)CC1 (stereo not shown) [Ketoconazole, ketoconazole]",inhibition of formation of parent drug by P450 isozyme inhibitor,[5],inhibit the formation parent drug in a dose-dependent fashion
same,inhibition of formation of parent drug by P450 isozyme inhibitor,[5]; listed as ketoconozole,inhibition of drug formation
C=CC(=O)c1ccccc1 [Phenyl vinyl ketone],teratogenic activity,rat embryos in culture,lacks teratogenic activity
Cc1nc2c([nH]1)c(=O)n(C)c(=O)n2Cc1ccco1 [furafylline],inhibition of formation of parent drug by P450 isozyme inhibitor,[5],no significant inhibition
Nc1ccc(S(=O)(=O)Nc2ccnn2-c2ccccc2)cc1 [sulfaphenazole],inhibition of formation of parent drug by P450 isozyme inhibitor,[5],no significant inhibition
